# Reference: patent US20210154281A1, “CELL-BASED CANCER VACCINES AND CANCER THERAPIES” (Massachusetts Institute of Technology, priority 2019, published 2021)
# Read-outs that look alike come from different tables or passages of the source.
# How the values were obtained:
# [1] = tested on: B16F10 melanoma tumor cell line; assay: Cell death by AnnexinV/DAPI staining 48 hours after drug treatment; assay type: cell-based, mouse; details: 48 hours; for cell death by DAPI and Annexin V staining: at the concentrations used; for cytotoxicity at 10 µM / viability at 10 µM / cytotoxicity at 50 µM / viability at 50 µM: Mus musculus, B16-F10; for viability at 10 µM / viability at 50 µM: read-out: AnnV−DAPI− (%) Mean
# Description: For assessment of cell death, floating and attached cells were harvested after 48 hours of treatment with the indicated chemotherapeutic drugs. Attached cells were detached using 5 mM EDTA in PBS. The recovered cells were centrifuged at 250×g for 5 minutes, washed once in PBS containing 0.9 mM Ca2+ and 0.5 mM Mg2+ and then stained with AnnV-FITC for 15 minutes in Annexin binding buffer at room temperature according to the manufacturer's protocol (Biolegend). Cells were co-stained with DAPI at a final concentration of 1 μg/ml for 2 minutes in Annexin binding buffer, brought to a final volume of 500 ul using PBS containing 0.9 mM Ca2^+ and 0.5 mM Mg2^+ and analyzed by flow cytometry.
# To identify how DNA-damaging chemotherapy could be optimally used to enhance anti-tumor immune function, cytotoxicity assays were performed using the B16F10 melanoma tumor cell line expressing ovalbumin (B16-Ova). Cells were treated with clinically used chemotherapeutic agents followed by assaying for cell death by DAPI and Annexin V staining 48 hours later.
# [2] = Cell viability (survival) assay with CellTiter-Glo, 48 hours; assay type: cell-based, mouse; details: mouse, B16F10 melanoma tumor cells, 48 hours, normalized to DMSO-treated control cells
# Description: For assays of survival, 15,000 cells were plated per well in a 96-well plate in 100 μl media with 5 replicates per condition. Wells along the four edges of the plate were not used. Following cell attachment, the indicated drugs were added in an equal volume of media, and incubated for an additional 48 hours. The media was then removed and replaced with 100 ul of fresh media at room temperature. Following a 30 minute incubation at room temperature, 50 μl of CellTiter-Glo reagent was added, followed by 2 minutes of gentle mixing. The plate was incubated at room temperature for an additional 10 minutes. 100 μl of supernatant was transferred to a 96-well white opaque plate and luminescence was read on a Tecan microplate reader. Values were normalized to those of DMSO-treated control cells.
# B16-Ova cells [3] = assay: In vitro cross presentation assay: drug-treated B16-Ova cells, BMDC and OT-1 CD8+ T-cells, IFN-γ+ T-cells by flow cytometry; assay type: cell-based, mouse; parameters: reduction of the percentage of IFNg+ T-cells by siRNA knockdown of calreticulin / reduction of T-cell IFN-γ responses / frequency of IFN-γ+ T-cells: concentration or dose not given beside the values; details: for inducing the appearance of IFNγ+OT-1 CD8+ T-cells: 50 μM etoposide or 10 μM mitoxantrone; for reduction of the percentage of IFNg+ T-cells by siRNA knockdown of calreticulin: compared to siRNA controls
# Description: (§1) B16-Ova or MC-38 Ova cells were treated with various doses of chemotherapeutic drugs for 24 h followed by extensive washing in IMDM (10% FBS, P/S). Subsequently 1×10^6 treated cells were co-cultured with 2.5×10^5 BMDC per well of a 24-well plate for each condition tested. After 24 hours of co-culture, supernatants were removed from each well and the BMDC washed 2-3 times in T-cell media (RPMI containing 10% FBS, 20 mM HEPES, 1 mM sodium pyruvate, 55 uM b-mercaptoethanol, 2 mM L-glutamine, nonessential amino acids and antibiotics). CD8+OT-I T-cells isolated from spleens of OT-I mice were then co-cultured with the BMDC at 125,000 T-cells per well to achieve an effector to target ratio of 0.5. Where indicated, BMDC and/or T-cells were also exposed to chemotherapy drugs. After a 12-15 h incubation, IFN-g producing T-cells were identified and quantified by intra-cellular cytokine staining and flow cytometry using a BD LSR II or Fortessa flow cytometer. Cells were first gated for CD3 expression, then re-gated for CD8 and IFNg expression.
# An experimental system was developed to assess dendritic cell-mediated T-cell priming using the B16-Ova cells, in combination with primary bone-marrow derived dendritic cells (BMDC) and OT-I CD8+ T-cells expressing a TCR transgene that specifically recognizes the Ova-derived peptide […] (SEQ ID NO:1) in the context of H2-Kb (OT-1) (Clarke, et al., Immunol Cell Biol., 78(2):110-7 (2000); Hogquist, et al., Cell, 76(1):17-27 (1994)). […] The treated B16-Ova cells/BMDC co-culture was then incubated with purified CD8+ T-cells obtained from the spleens of OT-1 mice, and the appearance of IFNg+CD8 T-cells was measured 12-15 hours later by intracellular staining and subsequent quantification using flow cytometry.
# MC-38-Ova cells = assay: In vitro cross presentation assay: drug-treated MC-38-Ova cells, BMDC and OT-1 CD8+ T-cells; assay type: cell-based, mouse
# Description: as §1
# B16-Ova cells [4] = assay: HMGB1 in cell culture media by ELISA; assay type: cell-based, mouse; details: for HMGB1 (ng/ml) MEAN: culture media 24-48 hours after treatment
# Description: Cell-free cell culture media was then analyzed by ELISA for HMGB1 according to the manufacturer's protocol.
# B16-Ova cells [5] = assay: ATP levels in cell-free culture media by CellTiter-Glo; assay type: cell-based, mouse; details: for ATP (nM) MEAN: culture media 24-48 hours after treatment
# Description: For measurement of ATP levels, cell-free culture media obtained as above was analyzed by CellTiter-Glo according to the manufacturer's protocol. Values were converted to ATP concentrations using a standard curve generated using pure ATP.
# p38MAPK = assay: Western blotting of cell lysates with anti-phospho-p38 antibody; assay type: cell-based, mouse; details: B16-Ova cells
# [6] = tested on: CT26 mouse colon cancer cells; details: previously reported; cited from earlier work
# B16-Ova cells [7] = assay: Calreticulin surface exposure by flow cytometry; details: for CALR (%): 24 hours after treatment, representative experiment; for level of externalized calreticulin: 24 hours of drug exposure
# [8] = B16-Ova cells treated with 10 uM for 24 h
# [9] = B16-Ova cells treated with 50 uM for 24 h
# [10] = MC-38-Ova cells treated with 10 uM for 24 h
# [11] = MC-38-Ova cells treated with 50 uM for 24 h
Structure (SMILES),cell death by DAPI and Annexin V staining [1],cytotoxicity at 10 µM ([1]; read-out: AnnV+DAPI+ (%) Mean) [%],cytotoxicity at 10 µM ([1]; read-out: AnnV+DAPI− (%) Mean) [%],cytotoxicity at 10 µM ([1]; read-out: AnnV−DAPI+ (%) Mean) [%],viability at 10 µM [1] [%],cytotoxicity at 50 µM ([1]; read-out: AnnV+DAPI+ (%) Mean) [%],cytotoxicity at 50 µM ([1]; read-out: AnnV+DAPI− (%) Mean) [%],cytotoxicity at 50 µM ([1]; read-out: AnnV−DAPI+ (%) Mean) [%],viability at 50 µM [1] [%],"viability at 48 h, 10 µM [2] [%]","viability at 48 h, 50 µM [2] [%]",inducing the appearance of IFNγ+OT-1 CD8+ T-cells (B16-Ova cells [3]),% CD3+CD8+IFN-γ+ T-cells MEAN (B16-Ova cells [3]; [8]) [%],% CD3+CD8+IFN-γ+ T-cells MEAN (B16-Ova cells [3]; [9]) [%],reduction of the percentage of IFNg+ T-cells by siRNA knockdown of calreticulin (B16-Ova cells [3]) [%],% CD3+CD8+IFN-γ+ T-cells MEAN (MC-38-Ova cells; [10]) [%],% CD3+CD8+IFN-γ+ T-cells MEAN (MC-38-Ova cells; [11]) [%],HMGB1 (ng/ml) MEAN (B16-Ova cells [4]; 10 uM) [ng/mL],HMGB1 (ng/ml) MEAN (B16-Ova cells [4]; 50 uM) [ng/mL],ATP (nM) MEAN (B16-Ova cells [5]; 10 uM) [nM],also measured
"COc1cc([C@@H]2c3cc4c(cc3[C@@H](O[C@@H]3O[C@@H]5CO[C@@H](C)O[C@H]5[C@H](O)[C@H]3O)[C@H]3COC(=O)[C@H]23)OCO4)cc(OC)c1O [Etop, etoposide]",caused varying extents of apoptotic and non-apoptotic cell death,51,11.6,6.54,30.9,47.9,10.9,4.57,36.6,34.9,36.1,highly effective,0.86,4.80,~50,13.13,3.83,29.24,10.65,2.05,"% CD3+CD8+IFN-γ+ T-cells MEAN (B16-Ova cells [3]; Table 7 experiment, 50 uM alone): 4.11%; % CD3+CD8+IFN-γ+ T-cells MEAN (B16-Ova cells [3]; Table 10 experiment, Etop 50 uM alone): 22.90%; appearance of IFN-γ+ CD8+ T-cells (B16-Ova cells [3]; co-exposure of both BMDCs and tumor cells, compared to exposure of B16-Ova cells alone): significantly reduced the appearance of IFN-γ+ CD8+ T-cells; magnitude of IFN-γ responses in T-cells (B16-Ova cells [3]; increasing doses from 0 to 100 uM): corresponding increase in the magnitude of IFN-γ responses; % CD3+CD8+IFN-γ+ T-cells MEAN (B16-Ova cells [3]; siCalR (calreticulin knockdown) B16-Ova cells, 50 uM): 2.71%; % CD3+CD8+IFN-γ+ T-cells MEAN (B16-Ova cells [3]; siCtrl (control siRNA) B16-Ova cells, 50 uM): 5.25%; tumor-directed T-cells relative to the level when exposure is limited to the tumor cells alone (B16-Ova cells [3]; triple co-exposure of tumor cells, BMDCs and T-cells): less than 10%; inducing the appearance of IFNγ+OT-1 CD8+ T-cells (MC-38-Ova cells; MC-38-Ova, etoposide 10 μM): the most effective treatment; HMGB1 release into the media (B16-Ova cells [4]; 24-48 hours post-treatment window): lowest levels of HMGB1 release; ATP (nM) MEAN (B16-Ova cells [5]; 50 uM): 1.35 nM; p38MAPK activation (p38MAPK): p38MAPK activation; immunogenic cell death / calreticulin exposure [6]: ineffective at inducing ER stress and calreticulin exposure; CALR (%) (B16-Ova cells [7]; 10 uM): 9.69%; CALR (%) (B16-Ova cells [7]; 50 uM): 9.69%; level of externalized calreticulin (B16-Ova cells [7]): intermediate levels of calreticulin exposure"
"O=C1c2c(O)ccc(O)c2C(=O)c2c(NCCNCCO)ccc(NCCNCCO)c21 [Mito, mitoxantrone]",caused varying extents of apoptotic and non-apoptotic cell death,52.4,17.1,9.44,21.1,73.8,11.7,8.5,6.08,0.0743,0.000452,highly effective,5.57,0.44,~80,3.433,0.148,70.09,14.63,1.02,"IFN-γ responses in T-cells (B16-Ova cells [3]; 5 uM): maximum IFN-γ responses; IFN-γ responses in T-cells (B16-Ova cells [3]; 10 uM): lower IFN-γ response; IFN-γ responses in T-cells (B16-Ova cells [3]; 25 uM and higher doses): undetectable; % CD3+CD8+IFN-γ+ T-cells MEAN (B16-Ova cells [3]; Table 7 experiment, 10 uM alone): 3.98%; % CD3+CD8+IFN-γ+ T-cells MEAN (B16-Ova cells [3]; siCalR (calreticulin knockdown) B16-Ova cells, 10 uM): 1.10%; % CD3+CD8+IFN-γ+ T-cells MEAN (B16-Ova cells [3]; siCtrl (control siRNA) B16-Ova cells, 10 uM): 4.63%; ATP (nM) MEAN (B16-Ova cells [5]; 50 uM): 1.80 nM; ATP release (B16-Ova cells [5]; after 24 hours of treatment): Substantial ATP release; p38MAPK activation (p38MAPK): p38MAPK activation; immunogenic cell death / calreticulin exposure [6]: promote strong immunogenic cell death; CALR (%) (B16-Ova cells [7]; 10 uM): 17.10%; CALR (%) (B16-Ova cells [7]; 50 uM): 4.15%; level of externalized calreticulin (B16-Ova cells [7]): highest level of externalized calreticulin"
